According to ChEMBL document CHEMBL2385073, “Synthesis and evaluation of cholecystokinin trimers: a multivalent approach to pancreatic cancer detection and treatment” (Bioorg Med Chem Lett, 2013):

What was measured:
Assay type in all cases: cell-based
[1] = target: T1, Gastrin/cholecystokinin type B receptor (Homo sapiens) (UniProt P32239); assay: Displacement of Eu-DTPA-CCK8 from CCK2 receptor in HEK293 cells after 2 hrs by TRF assay relative to CCK4
T1 sequence (whole entry): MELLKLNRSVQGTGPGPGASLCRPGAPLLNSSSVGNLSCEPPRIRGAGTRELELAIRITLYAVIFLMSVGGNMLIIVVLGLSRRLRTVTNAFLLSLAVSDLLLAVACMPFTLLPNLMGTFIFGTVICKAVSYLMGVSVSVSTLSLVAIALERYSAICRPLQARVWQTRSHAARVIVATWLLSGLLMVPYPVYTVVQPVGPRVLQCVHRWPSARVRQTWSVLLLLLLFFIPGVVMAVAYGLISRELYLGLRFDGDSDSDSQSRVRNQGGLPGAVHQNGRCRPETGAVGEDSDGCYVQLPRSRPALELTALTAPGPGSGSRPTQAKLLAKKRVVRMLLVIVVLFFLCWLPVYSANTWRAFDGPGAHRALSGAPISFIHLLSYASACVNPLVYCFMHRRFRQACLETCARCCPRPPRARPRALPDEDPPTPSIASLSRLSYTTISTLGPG

[2] = target: T2, Gastrin/cholecystokinin type B receptor (Homo sapiens, UniProt P32239); assay: Displacement of Eu-DTPA-CCK8 from CCK2 receptor in HEK293 cells after 2 hrs by TRF assay
T2 sequence (P32239 whole entry): T1 sequence (whole entry)

[3] = target: Melanocortin receptor 4 (Homo sapiens, UniProt P32245); assay: Binding affinity to MC4R in HEK293 cells
Chain of Melanocortin receptor 4 (P32245 whole entry): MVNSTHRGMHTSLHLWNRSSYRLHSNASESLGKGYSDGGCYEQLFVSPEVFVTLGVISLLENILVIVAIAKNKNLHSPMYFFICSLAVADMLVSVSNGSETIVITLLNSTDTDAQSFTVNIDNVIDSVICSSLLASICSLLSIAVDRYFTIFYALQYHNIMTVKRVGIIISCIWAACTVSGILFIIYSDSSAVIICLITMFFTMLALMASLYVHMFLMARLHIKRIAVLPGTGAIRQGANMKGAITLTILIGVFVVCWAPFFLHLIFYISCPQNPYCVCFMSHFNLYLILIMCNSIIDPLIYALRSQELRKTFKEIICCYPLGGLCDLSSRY

Row | Structure (SMILES) | fold change (FC) [1] | IC50 [2] [nM] | IC50 [3] [nM]
1 | C#CCCC(=O)NCCCC[C@H](NC(C)=O)C(=O)N[C@@H](Cc1c[nH]c2ccccc12)C(=O)N(C)[C@@H](CCCC)C(=O)N[C@@H](CC(=O)O)C(=O)N[C@@H](Cc1ccccc1)C(=O)Nc1cn(CC(=O)NCCC(=O)NCCC(=O)NCCCC(CCCNC(=O)CCNC(=O)CCNC(=O)Cn2cc(NC(=O)[C@H](Cc3ccccc3)NC(=O)[C@H](CC(=O)O)NC(=O)[C@H](CCCC)N(C)C(=O)[C@H](Cc3c[nH]c4ccccc34)NC(=O)[C@H](CCCCNC(=O)CCC#C)NC(C)=O)nn2)(NC(=O)CNC(=O)CCNC(=O)CCNC(=O)Cn2cc(NC(=O)[C@H](Cc3ccccc3)NC(=O)[C@H](CC(=O)O)NC(=O)[C@H](CCCC)N(C)C(=O)[C@H](Cc3c[nH]c4ccccc34)NC(=O)[C@H](CCCCNC(=O)CCC#C)NC(C)=O)nn2)C(=O)NCCC(N)=O)nn1 | 2 | 8.5 | 
2 | C#CCCC(=O)NCCCC[C@H](NC(C)=O)C(=O)N[C@@H](Cc1c[nH]c2ccccc12)C(=O)N(C)[C@@H](CCCC)C(=O)N[C@@H](CC(=O)O)C(=O)N[C@@H](Cc1ccccc1)C(=O)Nc1cn(CC(=O)NCCCC(CCCNC(=O)Cn2cc(NC(=O)[C@H](Cc3ccccc3)NC(=O)[C@H](CC(=O)O)NC(=O)[C@H](CCCC)N(C)C(=O)[C@H](Cc3c[nH]c4ccccc34)NC(=O)[C@H](CCCCNC(=O)CCC#C)NC(C)=O)nn2)(NC(=O)CNC(=O)Cn2cc(NC(=O)[C@H](Cc3ccccc3)NC(=O)[C@H](CC(=O)O)NC(=O)[C@H](CCCC)N(C)C(=O)[C@H](Cc3c[nH]c4ccccc34)NC(=O)[C@H](CCCCNC(=O)CCC#C)NC(C)=O)nn2)C(=O)NCCC(N)=O)nn1 | 1.5 | 12 | 
3 | C#CCCC(=O)NCCCC[C@H](NC(C)=O)C(=O)N[C@@H](Cc1c[nH]c2ccccc12)C(=O)N(C)[C@@H](CCCC)C(=O)N[C@@H](CC(=O)O)C(=O)N[C@@H](Cc1ccccc1)C(=O)Nc1cn(CC(=O)NCC(=O)N2CCC[C@H]2C(=O)NCC(=O)NCCCC(CCCNC(=O)CNC(=O)[C@@H]2CCCN2C(=O)CNC(=O)Cn2cc(NC(=O)[C@H](Cc3ccccc3)NC(=O)[C@H](CC(=O)O)NC(=O)[C@H](CCCC)N(C)C(=O)[C@H](Cc3c[nH]c4ccccc34)NC(=O)[C@H](CCCCNC(=O)CCC#C)NC(C)=O)nn2)(NC(=O)CNC(=O)CNC(=O)[C@@H]2CCCN2C(=O)CNC(=O)Cn2cc(NC(=O)[C@H](Cc3ccccc3)NC(=O)[C@H](CC(=O)O)NC(=O)[C@H](CCCC)N(C)C(=O)[C@H](Cc3c[nH]c4ccccc34)NC(=O)[C@H](CCCCNC(=O)CCC#C)NC(C)=O)nn2)C(=O)NCCC(N)=O)nn1 | 2.5 | 6 | 
4 | C#CCCC(=O)NCCCC[C@H](NC(C)=O)C(=O)N[C@@H](Cc1c[nH]c2ccccc12)C(=O)N(C)[C@@H](CCCC)C(=O)N[C@@H](CC(=O)O)C(=O)N[C@@H](Cc1ccccc1)C(N)=O |  | 16 | 
5 | C#CCCC(=O)NCCCC[C@H](NC(C)=O)C(=O)N[C@@H](Cc1c[nH]c2ccccc12)C(=O)N(C)[C@@H](CCCC)C(=O)N[C@@H](CC(=O)O)C(=O)N[C@@H](Cc1ccccc1)C(=O)Nc1cn(CC(=O)NCCC(=O)NCCCC(CCCNC(=O)CCNC(=O)Cn2cc(NC(=O)[C@H](Cc3ccccc3)NC(=O)[C@H](CC(=O)O)NC(=O)[C@H](CCCC)N(C)C(=O)[C@H](Cc3c[nH]c4ccccc34)NC(=O)[C@H](CCCCNC(=O)CCC#C)NC(C)=O)nn2)(NC(=O)CNC(=O)CCNC(=O)Cn2cc(NC(=O)[C@H](Cc3ccccc3)NC(=O)[C@H](CC(=O)O)NC(=O)[C@H](CCCC)N(C)C(=O)[C@H](Cc3c[nH]c4ccccc34)NC(=O)[C@H](CCCCNC(=O)CCC#C)NC(C)=O)nn2)C(=O)NCCC(N)=O)nn1 | 3 | 5.2 | 
6 | C#CCCC(=O)NCCCC[C@H](NC(C)=O)C(=O)N[C@@H](CO)C(=O)N[C@@H](CCCC)C(=O)N[C@@H](CCC(=O)O)C(=O)N[C@@H](Cc1cnc[nH]1)C(=O)N[C@H](Cc1ccccc1)C(=O)N[C@@H](CCCNC(=N)N)C(=O)N[C@@H](Cc1c[nH]c2ccccc12)C(=O)Nc1cn(CC(=O)NCCCC(CCCNC(=O)Cn2cc(NC(=O)[C@H](Cc3c[nH]c4ccccc34)NC(=O)[C@H](CCCNC(=N)N)NC(=O)[C@@H](Cc3ccccc3)NC(=O)[C@H](Cc3cnc[nH]3)NC(=O)[C@H](CCC(=O)O)NC(=O)[C@H](CCCC)NC(=O)[C@H](CO)NC(=O)[C@H](CCCCNC(=O)CCC#C)NC(C)=O)nn2)(NC(=O)CNC(=O)Cn2cc(NC(=O)[C@H](Cc3c[nH]c4ccccc34)NC(=O)[C@H](CCCNC(=N)N)NC(=O)[C@@H](Cc3ccccc3)NC(=O)[C@H](Cc3cnc[nH]3)NC(=O)[C@H](CCC(=O)O)NC(=O)[C@H](CCCC)NC(=O)[C@H](CO)NC(=O)[C@H](CCCCNC(=O)CCC#C)NC(C)=O)nn2)C(=O)NCCC(N)=O)nn1 (stereo not given in full) |  |  | 12
